Our source for the Km, Dehydrated and Control values is PMC3628601, “Novel control of lactate dehydrogenase from the freeze tolerant wood frog: role of posttranslational modifications” (PeerJ, 2013).

What all share (assay type): biochemical, Lithobates sylvaticus
Assay [1] has as its system T1, muscle LDH, dehydrated (dehydrated LDH).
T1 construct: gene LDHA
Briefly: NADH production at […] nm, reverse reaction. The note with it: pH 8, 22 °C, 50 mM Tris.

The test system of assay [2] is T2, muscle LDH, control (control LDH).
T2 construct: gene LDHA
The assay can be described thus: NADH production at […] nm, reverse reaction. The note with it: pH 8, 22 °C, 50 mM Tris.

Assay [3] shares this test system. The assay can be described thus: NADH consumption at […] nm, forward reaction. The note with it: pH 7, 22 °C, 50 mM Tris, saturating NADH (0.15 mM).
The subject of assay [4] is T1, muscle LDH, dehydrated (dehydrated LDH). The assay can be described thus: NADH consumption at […] nm, forward reaction. The note with it: pH 7, 22 °C, 50 mM Tris, saturating NADH (0.15 mM).
The test system is the same in assay [5]. The assay can be described thus: NADH absorbance at […] nm, forward reaction. The note with it: pH 7.0, 22 °C, 50 mM Tris, saturating NADH (0.15 mM); inhibition by excess substrate.
Assay [6] has as its system T2, muscle LDH, control (control LDH). Briefly: NADH absorbance at […] nm, forward reaction. The note with it: pH 7.0, 22 °C, 50 mM Tris, saturating NADH (0.15 mM); inhibition by excess substrate.

As a reminder, the Km is the substrate concentration at which the rate is half of its maximum. For `C[C@H](O)C(=O)O` [L-lactate], the Km in assay [1] (saturating NAD (1 mM)) worked out at 5600 ± 500 µM; in assay [2] (saturating NAD (1 mM)), 11000 ± 640 µM.

For `NC(=O)c1ccc[n+]([C@@H]2O[C@H](COP(=O)(O)OP(=O)(O)OC[C@H]3O[C@@H](n4cnc5c(N)ncnc54)[C@H](O)[C@@H]3O)[C@@H](O)[C@H]2O)c1` [NAD], the values for the Km in assay [1] (saturating L-lactate (22.5 mM)) and in assay [2] (saturating L-lactate (22.5 mM)) were 640 ± 40 µM and 1380 ± 50 µM, respectively.

For the compound `CC(=O)C(=O)O` [pyruvate], the Km is 160 ± 10 µM in assay [3] and 130 ± 10 µM in assay [4]. The Dehydrated in assay [5] was determined as 8.26 ± 0.76 mM. In addition, in assay [6], the Control came to 7.93 ± 0.34 mM.
